Assays:
human mGlu5a receptor = human mGlu5a receptor (Homo sapiens (Human), UniProt P41594); assay: mGlu5 NAM FLIPR Assay (Assay 1); format: cell-based; details: for IC50: HEK293 cells stably expressing human mGlu5a, antagonism of EC90 glutamate, [Ca]i
Procedure: A. mGlu5 NAM FLIPR Assay (Assay 1)
Activation of the mGluR5 receptor expressed in cell lines results in an increase in intracellular calcium concentration. Using calcium sensitive fluorescent dyes and a suited fluorescence plate reader this functional response is detectable and quantifiable. This technique could be used to characterize pharmacological modifications of the mGluR5 receptor.
[Ca]i measurements were performed in HEK293 cells stably expressing the full-length human mGlu5a receptor under the control of a tet-regulated promoter. Cells were cultivated in Dulbecco's modified eagle's medium (DMEM) with 10% fetal calf serum, 100 μg/ml HygromycinB, 500 μg/ml G418 and 2 μg/ml Tetracycline in a 37°, 95% humidity and 5% CO2 incubator. Confluent cell cultures were split on a bi-weekly schedule.
72 hours prior to the assay run mGluR5a expression was induced by replacing the culture medium by DMEM with 10% fetal calf serum without antibiotics. 24 hours prior to the assay run, cell medium was replaced after two wash steps by DMEM, 10% fetal calf serum without glutamine and phenol red. On the assay day, cells were detached from the culture flask by versene, washed, resuspended in a modified Ringer solution with 5 mM Glucose and 10 mM HEPES pH7.4, and plated on Poly-D-Lysine coated 384-well plates with a density of 10.000 cells/60 μl per well. After a seeding time of 1 hour in the incubator the cells were dye-loaded by adding 20 μl of a 4-fold concentrated dye solution from the Calcium 4 kit (Molecular Devices Inc., R8141) according to the manufacturer's manual and incubated for an additional 100 minutes. Compounds were prepared by a 11 point serial dilution in DMSO and a final dilution step into assay puffer (modified Ringer) to ensure a final DMSO concentration of 1% in the assay.
Measurements were done in a two-step procedure. A first measurement was performed directly after the addition of compounds to the cell plates to quantify and correct for compound related non specific effects (e.g. auto fluorescence). 5 minutes later, the antagonistic activities of the compounds were measured by addition of a EC90 concentration of the agonist glutamate (the EC90 concentration was controlled by glutamate dose-response curves). All measurements were done with a fluorimetric imaging plate reader (FLIPR, Molecular Devices Inc.).
IC50 values and Hill slopes were derived from 11-point four parametric non-linear curve fittings with the AssayExplorer software using peak heights of fluorescence signals.

11β-HSD1 = 11β-HSD1 (Homo sapiens (Human), UniProt P28845); assay: 11β-hydroxysteroid dehydrogenase (HSD) 1 Assay (Assay 2), HTRF; format: biochemical; details: for IC50: human liver microsomes, cortisol generated from cortisone, HTRF, read-out: 11βHSD1 IC50
Procedure: The compounds of this invention or the physiological acceptable salts thereof were tested for their inhibitory effect on the enzyme 11β-hydroxysteroid dehydrogenase (HSD) 1.
B. 11β-hydroxysteroid dehydrogenase (HSD) 1 Assay (Assay 2)
Compounds were incubated for 1 hour at 37° C. in Tris buffer (20 mM tris, 5 mM EDTA, pH 6.0) containing NADPH (200 μM) and cortisone (80 nM). Cortisol generated in the reaction was then detected by a competitive immunoassay involving two HTRF conjugates: cortisol linked to XL665 and anticortisol antibody labeled with Europium cryptate. The incubation period for detection reaction was 2 hours. The amount of cortisol is determined by reading the time-resolved fluorescence of the wells (Ex 320/75 nm; Em 615/8.5 nm and 665/7.5 nm). The ratio of the two emission signals was then calculated (Em665*10000/Em615). […] Each assay also comprised a calibration curve with cortisol to transform the fluorescent data into cortisol concentrations.
Percent inhibition (% CTL) of each compound is determined relative to the carbenoxolone signal and IC50 curves were generated.

Chain of 11β-HSD1 (P28845 whole entry): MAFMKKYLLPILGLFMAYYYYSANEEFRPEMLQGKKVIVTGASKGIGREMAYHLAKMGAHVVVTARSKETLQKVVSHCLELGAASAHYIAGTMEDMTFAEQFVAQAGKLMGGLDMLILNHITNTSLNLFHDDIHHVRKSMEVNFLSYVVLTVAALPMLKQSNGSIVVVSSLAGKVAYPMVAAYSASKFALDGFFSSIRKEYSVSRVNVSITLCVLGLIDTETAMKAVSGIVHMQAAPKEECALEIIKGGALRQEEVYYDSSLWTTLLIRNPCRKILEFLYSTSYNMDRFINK
Chain of human mGlu5a receptor (P41594 other isoform, or with tags, fused parts or gaps): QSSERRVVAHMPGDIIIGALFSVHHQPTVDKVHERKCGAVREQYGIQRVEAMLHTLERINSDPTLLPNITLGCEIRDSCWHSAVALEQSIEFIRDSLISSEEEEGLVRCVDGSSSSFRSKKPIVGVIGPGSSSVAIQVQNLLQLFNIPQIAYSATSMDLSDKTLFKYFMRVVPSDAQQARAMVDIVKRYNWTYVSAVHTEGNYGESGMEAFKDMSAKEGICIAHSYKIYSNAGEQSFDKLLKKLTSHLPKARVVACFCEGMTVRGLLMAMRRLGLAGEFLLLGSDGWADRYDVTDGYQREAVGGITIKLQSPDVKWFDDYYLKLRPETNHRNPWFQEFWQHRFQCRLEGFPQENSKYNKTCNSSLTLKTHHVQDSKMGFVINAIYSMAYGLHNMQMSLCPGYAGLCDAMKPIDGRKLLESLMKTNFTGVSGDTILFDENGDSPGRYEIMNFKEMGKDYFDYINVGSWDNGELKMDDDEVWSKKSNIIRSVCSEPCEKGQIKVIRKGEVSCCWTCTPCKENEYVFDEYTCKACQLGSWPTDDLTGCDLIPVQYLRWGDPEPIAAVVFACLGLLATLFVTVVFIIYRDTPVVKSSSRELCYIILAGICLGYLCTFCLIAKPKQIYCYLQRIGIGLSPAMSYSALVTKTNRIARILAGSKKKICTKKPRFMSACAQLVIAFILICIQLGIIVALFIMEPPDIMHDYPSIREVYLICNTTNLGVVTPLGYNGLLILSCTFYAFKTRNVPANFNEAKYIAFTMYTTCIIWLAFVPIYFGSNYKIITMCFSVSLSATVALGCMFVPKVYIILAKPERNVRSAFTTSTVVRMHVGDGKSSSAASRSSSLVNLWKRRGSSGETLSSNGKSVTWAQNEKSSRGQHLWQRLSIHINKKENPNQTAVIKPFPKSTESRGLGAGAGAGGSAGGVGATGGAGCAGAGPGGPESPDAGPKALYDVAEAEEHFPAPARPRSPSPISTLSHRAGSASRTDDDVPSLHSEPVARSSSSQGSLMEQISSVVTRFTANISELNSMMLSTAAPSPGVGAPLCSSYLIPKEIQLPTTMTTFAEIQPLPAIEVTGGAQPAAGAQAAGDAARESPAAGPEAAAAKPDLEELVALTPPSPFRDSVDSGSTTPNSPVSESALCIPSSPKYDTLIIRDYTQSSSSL

Row | Molecule | activity in assay 1 (mGlu5), in words (human mGlu5a receptor) | IC50 (human mGlu5a receptor) | activity on 11βHSD1 (assay 2), in words (11β-HSD1) | IC50 (11β-HSD1)
1 | O=C(c1cc2ncc(Br)cn2n1)N1CCCC1 [A, reference compound] | inactivity | > 10 µM | inactivity | –
2 | O=C(c1cc2ncc(Br)cn2n1)N1CCCCCC1 [B, reference compound] | inactivity | > 10 µM | inactivity | > 10 µM
3 | COc1ccc(-c2cc(C(F)(F)F)n3nc(C(=O)N4CCc5ncsc5CC4)cc3n2)cc1 [C, reference compound] | – | > 10 µM | – | > 10 µM
4 | Cc1cc(C(F)(F)F)n2nc(C(=O)N3CCc4ncsc4CC3)cc2n1 [D, reference compound] | – | > 10 µM | – | > 10 µM
5 | COc1cccc(-c2cc(C(F)(F)F)n3nc(C(=O)N4CCc5ncsc5CC4)cc3n2)c1 [E, reference compound] | – | > 10 µM | – | > 10 µM
6 | O=C(c1cc2ncc(Br)cn2n1)N1CCc2ccc(Cl)nc2CC1 [Example 1, (6-Bromo-pyrazolo[1,5-a]pyrimidin-2-yl)-(2-chloro-5,6,8,9-tetrahydro-pyrido[2,3-d]azepin-7-yl)-methanone] | – | 0.146 µM | – | > 10 µM
7 | COc1ccc2c(n1)CCN(C(=O)c1cc3ncc(Br)cn3n1)CC2 [Example 2, (6-Bromo-pyrazolo[1,5-a]pyrimidin-2-yl)-(2-methoxy-5,6,8,9-tetrahydro-pyrido[2,3-d]azepin-7-yl)-methanone] | – | 0.23 µM | – | > 10 µM
8 | O=C(c1cc2ncc(Br)cn2n1)N1CCc2ccsc2CC1 [Example 3, (6-Bromo-pyrazolo[1,5-a]pyrimidin-2-yl)-(4,5,7,8-tetrahydro-thieno[2,3-d]azepin-6-yl)-methanone] | – | 1.39 µM | – | > 10 µM
9 | CCc1nc2c(s1)CCN(C(=O)c1cc3ncc(Br)cn3n1)CC2 [Example 4, (6-Bromo-pyrazolo[1,5-a]pyrimidin-2-yl)-(2-ethyl-4,5,7,8-tetrahydro-thiazolo[4,5-d]azepin-6-yl)-methanone] | – | 0.033 µM | – | > 10 µM
10 | O=C(c1cc2ncc(Br)cn2n1)N1CCCCC1 [Example 4-21, reference compound] | – | > 10 µM | – | > 10 µM
11 | O=C(c1cc2ncc(Br)cn2n1)N1CCOCC1 [Example 4-22, reference compound] | – | > 10 µM | – | > 10 µM
12 | O=C(c1cc2ncc(Br)cn2n1)N1CCc2ncsc2CC1 [Example 5, (6-Bromo-pyrazolo[1,5-a]pyrimidin-2-yl)-(4,5,7,8-tetrahydro-thiazolo[4,5-d]azepin-6-yl)-methanone] | – | 0.11 µM | – | > 10 µM
13 | O=C(c1cc2ncc(Br)cn2n1)N1CCc2cc(Cl)nnc2CC1 [Example 7, (6-Bromo-pyrazolo[1,5-a]pyrimidin-2-yl)-(3-chloro-5,6,8,9-tetrahydro-1,2,7-triaza-benzocyclohepten-7-yl)-methanone] | – | 0.34 µM | – | > 10 µM
14 | COCc1nc2c(s1)CCN(C(=O)c1cc3ncc(Br)cn3n1)CC2 [Example 8, (6-Bromo-pyrazolo[1,5-a]pyrimidin-2-yl)-(2-methoxymethyl-4,5,7,8-tetrahydro-thiazolo[4,5-d]azepin-6-yl)-methanone] | – | 1.54 µM | – | > 10 µM
15 | Cc1cnc2cc(C(=O)N3CCc4ncsc4CC3)nn2c1 [Example 9] | – | 1.42 µM | – | > 10 µM
16 | O=C(c1cc2ncc(Cl)cn2n1)N1CCc2ncsc2CC1 [Example 10, (6-Chloro-pyrazolo[1,5-a]pyrimidin-2-yl)-(4,5,7,8-tetrahydro-thiazolo[4,5-d]azepin-6-yl)-methanone] | – | 0.059 µM | – | > 10 µM
17 | O=C(c1cc2ncc(Br)cn2n1)N1CCc2[nH]c(=O)sc2CC1 [Example 11, 6-(6-Bromo-pyrazolo[1,5-a]pyrimidine-2-carbonyl)-3,4,5,6,7,8-hexahydro-thiazolo[4,5-d]azepin-2-one] | – | 0.066 µM | – | > 10 µM
18 | CC(C)c1nc2c(s1)CCN(C(=O)c1cc3ncc(Br)cn3n1)CC2 [Example 12, (6-Bromo-pyrazolo[1,5-a]pyrimidin-2-yl)-(2-isopropyl-4,5,7,8-tetrahydro-thiazolo[4,5-d]azepin-6-yl)-methanone] | – | 0.148 µM | – | > 10 µM
19 | Cc1nc2c(s1)CCN(C(=O)c1cc3ncc(Cl)cn3n1)CC2 [Example 13, (6-Chloro-pyrazolo[1,5-a]pyrimidin-2-yl)-(2-methyl-4,5,7,8-tetrahydro-thiazolo[4,5-d]azepin-6-yl)-methanone] | – | 0.063 µM | – | > 10 µM
20 | O=C(c1cc2ncc(Br)cn2n1)N1CCc2cccnc2CC1 [Example 14, (6-Bromo-pyrazolo[1,5-a]pyrimidin-2-yl)-(5,6,8,9-tetrahydro-pyrido[2,3-d]azepin-7-yl)-methanone] | – | 0.603 µM | – | > 10 µM
21 | Cn1cnc2c1CCN(C(=O)c1cc3ncc(Br)cn3n1)CC2 [Example 15, (6-Bromo-pyrazolo[1,5-a]pyrimidin-2-yl)-(1-methyl-4,5,7,8-tetrahydro-1H-imidazo[4,5-d]azepin-6-yl)-methanone] | – | 0.692 µM | – | > 10 µM
22 | Cn1c2c(sc1=O)CCN(C(=O)c1cc3ncc(Br)cn3n1)CC2 [Example 16, 6-(6-Bromo-pyrazolo[1,5-a]pyrimidine-2-carbonyl)-3-methyl-3,4,5,6,7,8-hexahydro-thiazolo[4,5-d]azepin-2-one] | – | 1.28 µM | – | > 10 µM
23 | Cn1c2c(c3ccccc31)CCN(C(=O)c1cc3ncc(Br)cn3n1)CC2 [Example 17, (6-Bromo-pyrazolo[1,5-a]pyrimidin-2-yl)-(6-methyl-1,4,5,6-tetrahydro-2H-azepino[4,5-b]indol-3-yl)-methanone] | – | 0.55 µM | – | > 10 µM
24 | CC(C)c1nc2c(s1)CCN(C(=O)c1cc3ncc(Cl)cn3n1)CC2 [Example 18, (6-Chloro-pyrazolo[1,5-a]pyrimidin-2-yl)-(2-isopropyl-4,5,7,8-tetrahydro-thiazolo[4,5-d]azepin-6-yl)-methanone] | – | 0.235 µM | – | –
25 | O=C(c1cc2ncc(Cl)cn2n1)N1CCc2[nH]c(=O)sc2CC1 [Example 19, 6-(6-Chloro-pyrazolo[1,5-a]pyrimidine-2-carbonyl)-3,4,5,6,7,8-hexahydro-thiazolo[4,5-d]azepin-2-one] | – | 0.128 µM | – | –
26 | (6-Bromo-pyrazolo[1,5-a]pyrimidin-2-yl)-(2-methyl-4,5,7,8-tetrahydro-3H-1lambda*4*-thiazolo[4,5-d]azepin-6-yl)-methanone [Example 6] | – | 0.043 µM | – | > 10 µM
